The experiment in a line: Inhibition of HCV genotype 1 polymerase. On the set-up: species or system Hepacivirus hominis.
With `O=c1c(C2=NS(=O)(=O)c3ccccc3N2)c(O)c2ccccc2n1NCc1ccccc1Br`, the IC50 – broadly, the point on the concentration scale where inhibition reaches its midpoint – was determined as 6720 nM. To `COc1ccccc1CNS(=O)(=O)Nc1ccc2c(c1)S(=O)(=O)N=C(c1c(O)c3cccnc3n(CCC(C)C)c1=O)N2` belongs 57 nM; to `COc1ccc(CNS(=O)(=O)Nc2ccc3c(c2)S(=O)(=O)N=C(c2c(O)c4cccnc4n(CCC(C)C)c2=O)N3)cc1`, 10 nM; to `CC(C)CCn1c(=O)c(C2=NS(=O)(=O)c3cc(NCC#N)ccc3N2)c(O)c2cccnc21`, 120 nM. On to `CCC(CC)Nn1c(=O)c(C2=NS(=O)(=O)c3ccccc3N2)c(O)c2ccccc21`, for which 2460 nM corresponded to half-maximal inhibition (IC50). The compound `O=c1c(C2=NS(=O)(=O)c3ccccc3N2)c(O)c2ccccc2n1NCC1CCCCCC1` gave an IC50 of 1040 nM. Against the preceding compound, the IC50 is about 2.4-fold lower.

`CC(C)CCn1c(=O)c(C2=NS(=O)(=O)c3cc(NS(=O)(=O)c4ccccc4)ccc3N2)c(O)c2cccnc21`: it took 41 nM to reach half-maximal inhibition (IC50).

On to `CCCC(CC)Nn1c(=O)c(C2=NS(=O)(=O)c3ccccc3N2)c(O)c2ccccc21` (centres undefined), for which inhibition was half-maximal at 1890 nM (IC50). To `CC(C)CCn1c(=O)c(C2=NS(=O)(=O)c3cc(OCC(=O)OC(C)(C)C)ccc3N2)c(O)c2cccnc21` belongs 5000 nM.

`CC(C)CCn1c(=O)c(C2=NS(=O)(=O)c3cc(N)ccc3N2)c(O)c2cccnc21` returned a 50% inhibitory concentration (IC50) of 310 nM. `CC(C)CCn1c(=O)c(C2=NS(=O)(=O)c3cc(OCC#N)ccc3N2)c(O)c2cccnc21` yielded a half-inhibitory concentration (IC50) of 141 nM. Compound `CC(C)CCn1c(=O)c(C2=NS(=O)(=O)c3cc(NS(=O)(=O)NC(=O)OCCCl)ccc3N2)c(O)c2cccnc21` registered a 50% inhibitory concentration (IC50) of 189 nM. To `Cc1cccc(CNn2c(=O)c(C3=NS(=O)(=O)c4ccccc4N3)c(O)c3ccccc32)c1` belongs 8210 nM; to `O=c1c(C2=NS(=O)(=O)c3ccccc3N2)c(O)c2cccnc2n1Cc1ccccc1`, 5800 nM; to `CC(C)CCn1c(=O)c(C2=NS(=O)(=O)c3cc(OCC(N)=O)ccc3N2)c(O)c2cccnc21`, 46 nM.

Regarding `Cc1cccc2c1N=C(c1c(O)c3cccnc3n(Cc3ccccc3)c1=O)NS2(=O)=O`, the midpoint of inhibition, the IC50, lay at 6700 nM. On to `O=c1c(C2=NS(=O)(=O)c3cccc(O)c3N2)c(O)c2cccnc2n1Cc1ccccc1`, for which half-maximal inhibition (IC50) was put at 8370 nM. To `O=c1c(C2=NS(=O)(=O)c3ccccc3N2)c(O)c2ccccc2n1NCc1cccc(Br)c1` belongs 1040 nM; to `O=c1c(C2=NS(=O)(=O)c3ccccc3N2)c(O)c2ccccc2n1NCC1CCCCC1`, 2530 nM; to `CCCOc1ccc2c(c1)S(=O)(=O)NC(c1c(O)c3cccnc3n(CCC(C)C)c1=O)=N2`, 1620 nM. To `Cc1ccccc1CNn1c(=O)c(C2=NS(=O)(=O)c3ccccc3N2)c(O)c2ccccc21` belongs 6120 nM; to `COC(=O)NS(=O)(=O)Nc1ccc2c(c1)S(=O)(=O)N=C(c1c(O)c3cccnc3n(CCC(C)C)c1=O)N2`, 63 nM; to `CC(C)CCn1c(=O)c(C2=NS(=O)(=O)c3cc(NS(=O)(=O)NC4CCNCC4)ccc3N2)c(O)c2cccnc21`, 32 nM. For `CC(C)CCn1c(=O)c(C2=NS(=O)(=O)c3cc(OCCN)ccc3N2)c(O)c2cccnc21`, the IC50 is 637000 nM. As for `CC(C)CCn1c(=O)c(C2=NS(=O)(=O)c3cc(NS(=O)(=O)Nc4ccc(C(N)=O)cc4)ccc3N2)c(O)c2cccnc21`, the figure is 18 nM. To `CC(C)CCn1c(=O)c(C2=NS(=O)(=O)c3cc(NC(=O)C(F)(F)F)ccc3N2)c(O)c2cccnc21` belongs 906 nM; to `CC(C)CCn1c(=O)c(C2=NS(=O)(=O)c3cc(NS(=O)(=O)N4CCCCC4)ccc3N2)c(O)c2cccnc21`, 51 nM. As for `COc1cccc2c1NC(c1c(O)c3cccnc3n(Cc3ccccc3)c1=O)=NS2(=O)=O`, the figure is 18000 nM; as for `CC(C)CCn1c(=O)c(C2=NS(=O)(=O)c3cc(NS(=O)(=O)N4CCC4)ccc3N2)c(O)c2cccnc21`, 24 nM. With `CC(C)CCn1c(=O)c(C2=NS(=O)(=O)c3cc(NCC(N)=O)ccc3N2)c(O)c2cccnc21`, the IC50 is 470 nM. To `CC(C)CCn1c(=O)c(C2=NS(=O)(=O)c3cc(NS(=O)(=O)Nc4cccc(C(=O)NCC(N)=O)c4)ccc3N2)c(O)c2cccnc21` belongs 43 nM; to `CC(C)CCn1c(=O)c(C2=NS(=O)(=O)c3cc(NS(C)(=O)=O)ccc3N2)c(O)c2cccnc21`, 2 nM; to `CC(C)CCn1c(=O)c(C2=NS(=O)(=O)c3cc(NS(=O)(=O)NC4CCCCC4)ccc3N2)c(O)c2cccnc21`, 67 nM.

Take `CC(C)CCn1c(=O)c(C2=NS(=O)(=O)c3cc(NS(=O)(=O)NC(=O)OCC(=O)O)ccc3N2)c(O)c2cccnc21`: the IC50 was 50 nM. On to `CC(C)CCn1c(=O)c(C2=NS(=O)(=O)c3cc(NS(=O)(=O)C(C)C)ccc3N2)c(O)c2cccnc21`, for which the IC50 amounted to 8 nM. The compound `O=c1c(C2=NS(=O)(=O)c3ccccc3N2)c(O)c2ccccc2n1NCc1ccc(Br)cc1` returned an IC50 of 10400 nM. Against the preceding compound, the IC50 is about 1300-fold higher. The compound `Cc1ccsc1CNn1c(=O)c(C2=NS(=O)(=O)c3ccccc3N2)c(O)c2ccccc21` had an IC50 of 15000 nM. The IC50 values of the last two compounds are within 1.5-fold of each other. Consider `O=c1c(C2=NS(=O)(=O)c3cc(Br)ccc3N2)c(O)c2cccnc2n1Cc1ccccc1`, for which half-maximal inhibition (IC50) required 16800 nM. `CCOC(=O)COC(=O)NS(=O)(=O)Nc1ccc2c(c1)S(=O)(=O)NC(c1c(O)c3cccnc3n(CCC(C)C)c1=O)=N2`: the IC50 came to 61 nM. `CC(C)CCn1c(=O)c(C2=NS(=O)(=O)c3cc(NS(=O)(=O)N(C)C(=O)OCc4ccccc4)ccc3N2)c(O)c2cccnc21` had an IC50 of 121 nM. Turning to `CC(C)CCn1c(=O)c(C2=NS(=O)(=O)c3cc(OCC(=O)O)ccc3N2)c(O)c2cccnc21`, the concentration for half-maximal inhibition (IC50) came to 367 nM. Against the preceding compound, the IC50 is about 3-fold higher.

The compound `O=c1c(C2=NS(=O)(=O)c3ccccc3N2)c(O)c2ccccc2n1NCc1ccc(Cl)s1` gave a half-inhibitory concentration (IC50) of 4780 nM. As for `CCCC(Nn1c(=O)c(C2=NS(=O)(=O)c3ccccc3N2)c(O)c2ccccc21)C(C)C` (centres undefined), the IC50 was determined as 6400 nM. Turning to `O=c1c(C2=NS(=O)(=O)c3ccccc3N2)c(O)c2ccccc2n1NCc1ccco1`, the IC50 came to 3260 nM. In turn, `COc1cccc2c1NC(c1c(O)c3cccnc3n(CCC(C)C)c1=O)=NS2(=O)=O` showed a half-maximal inhibitory concentration (IC50) of 17600 nM. To `CC(C)CCn1c(=O)c(C2=NS(=O)(=O)c3cc(NS(=O)(=O)NC(=O)OCCOCc4ccccc4)ccc3N2)c(O)c2cccnc21` belongs 96 nM. To `CCCCCNn1c(=O)c(C2=NS(=O)(=O)c3ccccc3N2)c(O)c2ccccc21` belongs 928 nM. As for `CC(C)CCn1c(=O)c(C2=NS(=O)(=O)c3cc(NS(=O)(=O)Nc4cccc(C(=O)O)c4)ccc3N2)c(O)c2cccnc21`, the figure is 115 nM; as for `C=CCOC(=O)NS(=O)(=O)Nc1ccc2c(c1)S(=O)(=O)N=C(c1c(O)c3cccnc3n(CCC(C)C)c1=O)N2`, 88 nM; as for `CCCC(CCC)Nn1c(=O)c(C2=NS(=O)(=O)c3ccccc3N2)c(O)c2ccccc21`, 2240 nM.

With `NS(=O)(=O)Nc1ccc2c(c1)S(=O)(=O)N=C(c1c(O)c3cccnc3n(NC3CCC3)c1=O)N2`, 5.2 nM corresponded to half-maximal inhibition (IC50). As to `CC(C)CCn1c(=O)c(C2=NS(=O)(=O)c3cc(NS(=O)(=O)Nc4cccc(C(N)=O)c4)ccc3N2)c(O)c2cccnc21`, half-maximal inhibition (IC50) required 43 nM. This IC50 lies about 8.3-fold higher than the previous one.

As for `CC(C)CCn1c(=O)c(C2=NS(=O)(=O)c3cc(NS(=O)(=O)NCCN)ccc3N2)c(O)c2cccnc21`, the IC50 amounted to 10 nM. This IC50 is about 4.3-fold lower than that of the compound before.

Turning to `O=c1c(C2=NS(=O)(=O)c3ccccc3N2)c(O)c2ccccc2n1NCc1ccoc1`, the IC50 is 1550 nM. This IC50 lies about 160-fold higher than the previous one.

Values taken from ChEMBL document CHEMBL1137511, “Identification of a series of novel derivatives as potent HCV inhibitors by a ligand-based virtual screening optimized procedure” (Bioorg Med Chem, 2007).
